How the values were obtained:
Assay in all cases: relative viability (nuclei count vs DMSO), 5 days (fraction); higher = more cells survive
BEN = test system: BEN
In short: (§1)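 Lung cancer cell lines in 1536-well plates were dosed by pin tool the day after seeding, either with one drug alone or with a fixed anchor-drug dose plus five library-drug doses (not always all listed) in √10 steps. After 5 days, cells were fixed and their nuclei stained in one step (final 0.05% Triton X-100, 1% formaldehyde, 1 ug/ml Hoechst), then counted on 4× images. Relative viability is the nuclei count in treated wells divided by that in vehicle wells. Values are medians of duplicate plates.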

NCI-H1915 = test system: NCI-H1915
In short: as §1

CAL-12T = test system: CAL-12T
In short: as §1

NCI-H2126 = test system: NCI-H2126
In short: as §1

NCI-H1793 = test system: NCI-H1793
In short: as §1

NCI-H1944 = test system: NCI-H1944
In short: as §1

LOU-NH91 = test system: LOU-NH91
In short: as §1

NCI-H838 = test system: NCI-H838
In short: as §1

SW 1573 = test system: SW 1573
In short: as §1

HCC-78 = test system: HCC-78
In short: as §1

NCI-H1651 = test system: NCI-H1651
In short: as §1

HOP-62 = test system: HOP-62
In short: as §1

NCI-H1395 = test system: NCI-H1395
In short: as §1

NCI-H3122 = test system: NCI-H3122
In short: as §1

201T = test system: 201T
In short: as §1

NCI-H1355 = test system: NCI-H1355
In short: as §1

NCI-H650 = test system: NCI-H650
In short: as §1

NCI-H2347 = test system: NCI-H2347
In short: as §1

SK-LU-1 = test system: SK-LU-1
In short: as §1

LCLC-97TM1 = test system: LCLC-97TM1
In short: as §1

NCI-H322M = test system: NCI-H322M
In short: as §1

NCI-H441 = test system: NCI-H441
In short: as §1

## Cc1csc(=NC2CCCCC2)n1/N=C/c1ccc(O)c(O)c1O [MIM1] + O=C(CCCCCCC(=O)Nc1ccccc1)NO [Vorinostat] (partner 1 µM)
BEN; first compound 0.2 µM
  relative viability: 0.587
BEN; first compound 0.6325 µM
  relative viability: 0.546
BEN; first compound 2 µM
  relative viability: 0.562
BEN; first compound 6.325 µM
  relative viability: 0.511
BEN; first compound 20 µM
  relative viability: 0.394
NCI-H1915; first compound 0.2 µM
  relative viability: 0.527
NCI-H1915; first compound 0.6325 µM
  relative viability: 0.429
NCI-H1915; first compound 2 µM
  relative viability: 0.442
NCI-H1915; first compound 6.325 µM
  relative viability: 0.343
NCI-H1915; first compound 20 µM
  relative viability: 0.17
CAL-12T; first compound 0.2 µM
  relative viability: 0.765
CAL-12T; first compound 0.6325 µM
  relative viability: 0.752
CAL-12T; first compound 2 µM
  relative viability: 0.801
CAL-12T; first compound 6.325 µM
  relative viability: 0.588
CAL-12T; first compound 20 µM
  relative viability: 0.595
NCI-H2126; first compound 0.2 µM
  relative viability: 0.745
NCI-H2126; first compound 0.6325 µM
  relative viability: 0.454
NCI-H2126; first compound 2 µM
  relative viability: 0.838
NCI-H2126; first compound 6.325 µM
  relative viability: 0.711
NCI-H2126; first compound 20 µM
  relative viability: 0.404
NCI-H1793; first compound 0.2 µM
  relative viability: 0.783
NCI-H1793; first compound 2 µM
  relative viability: 0.732
NCI-H1793; first compound 6.325 µM
  relative viability: 0.649
NCI-H1793; first compound 20 µM
  relative viability: 0.553
NCI-H1944; first compound 0.2 µM
  relative viability: 0.548
NCI-H1944; first compound 0.6325 µM
  relative viability: 0.499
NCI-H1944; first compound 2 µM
  relative viability: 0.39
NCI-H1944; first compound 6.325 µM
  relative viability: 0.428
NCI-H1944; first compound 20 µM
  relative viability: 0.228
LOU-NH91; first compound 0.2 µM
  relative viability: 0.672
LOU-NH91; first compound 0.6325 µM
  relative viability: 0.822
LOU-NH91; first compound 2 µM
  relative viability: 0.699
LOU-NH91; first compound 6.325 µM
  relative viability: 0.359
LOU-NH91; first compound 20 µM
  relative viability: 0.298
NCI-H838; first compound 0.2 µM
  relative viability: 0.717
NCI-H838; first compound 0.6325 µM
  relative viability: 0.747
NCI-H838; first compound 2 µM
  relative viability: 0.675
NCI-H838; first compound 6.325 µM
  relative viability: 0.413
NCI-H838; first compound 20 µM
  relative viability: 0.197
SW 1573; first compound 0.2 µM
  relative viability: 0.806
SW 1573; first compound 0.6325 µM
  relative viability: 0.668
SW 1573; first compound 2 µM
  relative viability: 0.773
SW 1573; first compound 6.325 µM
  relative viability: 0.573
SW 1573; first compound 20 µM
  relative viability: 0.131
HCC-78; first compound 0.2 µM
  relative viability: 0.452
HCC-78; first compound 2 µM
  relative viability: 0.38
HCC-78; first compound 6.325 µM
  relative viability: 0.424
HCC-78; first compound 20 µM
  relative viability: 0.438
NCI-H1651; first compound 0.2 µM
  relative viability: 0.509
NCI-H1651; first compound 0.6325 µM
  relative viability: 0.408
NCI-H1651; first compound 2 µM
  relative viability: 0.519
NCI-H1651; first compound 6.325 µM
  relative viability: 0.395
NCI-H1651; first compound 20 µM
  relative viability: 0.51
HOP-62; first compound 0.2 µM
  relative viability: 0.655
HOP-62; first compound 0.6325 µM
  relative viability: 0.469
HOP-62; first compound 2 µM
  relative viability: 0.541
HOP-62; first compound 6.325 µM
  relative viability: 0.379
HOP-62; first compound 20 µM
  relative viability: 0.0827
NCI-H1395; first compound 0.2 µM
  relative viability: 0.799
NCI-H1395; first compound 0.6325 µM
  relative viability: 0.626
NCI-H1395; first compound 2 µM
  relative viability: 0.641
NCI-H1395; first compound 6.325 µM
  relative viability: 0.422
NCI-H1395; first compound 20 µM
  relative viability: 0.322
NCI-H3122; first compound 0.2 µM
  relative viability: 0.959
NCI-H3122; first compound 0.6325 µM
  relative viability: 0.894
NCI-H3122; first compound 2 µM
  relative viability: 1.02
NCI-H3122; first compound 6.325 µM
  relative viability: 0.618
NCI-H3122; first compound 20 µM
  relative viability: 0.127
201T; first compound 0.2 µM
  relative viability: 0.974
201T; first compound 0.6325 µM
  relative viability: 0.952
201T; first compound 2 µM
  relative viability: 0.935
201T; first compound 6.325 µM
  relative viability: 0.528
201T; first compound 20 µM
  relative viability: 0.3
NCI-H1355; first compound 0.2 µM
  relative viability: 0.673
NCI-H1355; first compound 0.6325 µM
  relative viability: 0.604
NCI-H1355; first compound 2 µM
  relative viability: 0.693
NCI-H1355; first compound 6.325 µM
  relative viability: 0.544
NCI-H1355; first compound 20 µM
  relative viability: 0.487
NCI-H650; first compound 0.2 µM
  relative viability: 0.481
NCI-H650; first compound 0.6325 µM
  relative viability: 0.257
NCI-H650; first compound 2 µM
  relative viability: 0.402
NCI-H650; first compound 6.325 µM
  relative viability: 0.414
NCI-H650; first compound 20 µM
  relative viability: 0.116
NCI-H2347; first compound 0.2 µM
  relative viability: 0.68
NCI-H2347; first compound 0.6325 µM
  relative viability: 0.643
NCI-H2347; first compound 2 µM
  relative viability: 0.652
NCI-H2347; first compound 6.325 µM
  relative viability: 0.449
NCI-H2347; first compound 20 µM
  relative viability: 0.315
SK-LU-1; first compound 0.2 µM
  relative viability: 0.764
SK-LU-1; first compound 0.6325 µM
  relative viability: 0.837
SK-LU-1; first compound 2 µM
  relative viability: 0.957
SK-LU-1; first compound 6.325 µM
  relative viability: 0.623
SK-LU-1; first compound 20 µM
  relative viability: 0.393
LCLC-97TM1; first compound 0.2 µM
  relative viability: 0.594
LCLC-97TM1; first compound 0.6325 µM
  relative viability: 0.23
LCLC-97TM1; first compound 2 µM
  relative viability: 0.719
LCLC-97TM1; first compound 6.325 µM
  relative viability: 0.236
LCLC-97TM1; first compound 20 µM
  relative viability: 0.0643
NCI-H322M; first compound 0.2 µM
  relative viability: 0.889
NCI-H322M; first compound 0.6325 µM
  relative viability: 0.917
NCI-H322M; first compound 2 µM
  relative viability: 0.789
NCI-H322M; first compound 6.325 µM
  relative viability: 0.733
NCI-H322M; first compound 20 µM
  relative viability: 0.418
NCI-H441; first compound 0.2 µM
  relative viability: 0.748
NCI-H441; first compound 0.6325 µM
  relative viability: 0.798
NCI-H441; first compound 2 µM
  relative viability: 0.974
NCI-H441; first compound 6.325 µM
  relative viability: 0.212
NCI-H441; first compound 20 µM
  relative viability: 0.191

Reference: the supplement of paper PMC10307832
